Patent US11827628B2, “Compositions and methods for inhibition of the JAK pathway” (Rigel Pharmaceuticals, Inc., priority 2005, dated 2023)
Counter-ions that a name gives are not always drawn. Like-named read-outs stand apart in the source and are kept apart here.

How the values were obtained:
[1] = tested on: IL-4 stimulated expression of CD23 in human Ramos B cells (JAK-1 and JAK-3); experiment: Assay for Ramos B-Cell Line Stimulated with IL-4 (CD23 upregulation, FACS); format: cell-based; settings: read-out: IC50, Example 41
How it was run: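 Human Ramos B cells in RPMI with 5% serum were pre-incubated with compound or DMSO for 1 h at 37 °C, then stimulated with IL-4 at a final 50 units/mL for 20-24 h. CD23 upregulation was measured by anti-CD23-PE staining and flow cytometry, and IC50 values were calculated.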

[2] = tested on: Primary human T-cells; experiment: Primary Human T-Cell Proliferation Assay Stimulated with IL-2 (CellTiter-Glo); format: cell-based; settings: read-out: IC50, Example 42
How it was run: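 Peripheral blood T-cells pre-activated with anti-CD3/anti-CD28 and IL-2 were washed free of IL-2, then cultured with compound plus IL-2 for 72 hours at 37° C, duplicate wells. Viability read as ATP by CellTiter-Glo luminescence; IC50 reported.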

[3] = Homo sapiens, Ramos, Ramos B cells stimulated with IL-4, CD23 expression by FACS
[4] = Homo sapiens, T-cell, primary human T-cells stimulated with IL-2, proliferation
[5] = Ramos B cells stimulated with IL-4, CD23 expression by FACS
[6] = primary human T-cells stimulated with IL-2, proliferation
[7] = Ramos B-cell line stimulated with IL-4, CD23 expression by FACS
[8] = primary human T-cell proliferation stimulated with IL-2
[9] = Homo sapiens, Ramos, Ramos B-cell line stimulated with IL-4, CD23 expression by FACS
[10] = Homo sapiens, T-cell, primary human T-cell proliferation stimulated with IL-2

Question: What does the source list for `COC(=O)c1ccc(Nc2nc(Nc3cccc(S(N)(=O)=O)c3)ncc2F)s1` [IX-47, N2-(3-Aminosulfonylphenyl)-5-fluoro-N4-(5-methoxycarbonyl-thiophene-2-yl)-2,4-pyrimidinediamine]?
Answer: IC50 [1, 3]: 223 nM; IC50 [2, 4]: 2390 nM

Question: With `NS(=O)(=O)c1cc(Nc2ncc(F)c(Nc3ccc(C(F)(F)F)cc3)n2)ccc1Cl` [VI-41, N2-(3-Aminosulfonyl-4-chlorophenyl)-5-fluoro-N4-(4-trifluorophenyl)-2,4-pyrimidinediamine] as the compound, how does the IC50 [1, 5] read?
Answer: 342 nM

Question: What about the IC50 [2, 6] of the same compound?
Answer: 6240 nM

Question: What does the source list for `Cn1ccc(NC(=O)Cc2ccc(Nc3nc(Nc4cccc(S(N)(=O)=O)c4)ncc3F)cc2)n1` [III-50, N2-(3-Aminosulfonylphenyl)-5-fluoro-N-4-[4(1-methylpyrazolyl-3-aminocarbonylmethylene)phenyl]-2,4-pyrimidinediamine]?
Answer: IC50 [1, 7]: 306 nM; IC50 [2, 8]: 1970 nM

Question: With `COc1ccc(Nc2nc(Nc3ccc(OC)c(S(N)(=O)=O)c3)ncc2F)cc1Cl` [VI-29, N2-(3-Aminosulfonyl-4-methoxyphenyl)-N4-(3-chloro-4-methoxyphenyl)-5-fluoro-2,4-pyrimidinediamine] as the compound, how does the IC50 [1, 3] read?
Answer: 49.8 nM

Question: And the IC50 [2, 4]?
Answer: 362 nM

Question: `CNC(=O)COc1ccc(Nc2nc(Nc3ccc(C)c(S(N)(=O)=O)c3)ncc2C)cc1Cl` [Compound I-151, N2-(3-Aminosulfonyl-4-methylphenyl)-N4-(3-chloro-4-methylaminocarbonylmethoxyphenyl)-5-methyl-2,4-pyrimidinediamine] was tested. Which IC50 [1, 9] did it give?
Answer: 61.9 nM

Question: And the IC50 [2, 10]?
Answer: 78.3 nM

Question: How did the IC50 [1, 9] turn out when `Cc1cnc(Nc2ccc(Cl)c(S(N)(=O)=O)c2)nc1Nc1ccc(OCC(=O)N(C)C)c(F)c1` [Compound I-142, N2-(3-Aminosulfonyl-4-chlorophenyl)-N4-(4-dimethylaminocarbonylmethoxy-3-fluorophenyl)-5-methyl-2,4-pyrimidinediamine] was run?
Answer: 155 nM

Question: What about the IC50 [2, 10] of the same compound?
Answer: 854 nM

Question: What does the source list for “N2-(3-Aminosulfonyl-4-methylphenyl)-N4-(4-ethylaminocarbonylaminomethylphenyl)-5-fluoro-2,4-pyrimidinedia [III-121]”?
Answer: IC50 [1, 5]: 575 nM; IC50 [2, 6]: 1020 nM

Question: What does the source list for `CC(Oc1ccc(Nc2nc(Nc3ccc(S(N)(=O)=O)cc3)ncc2F)cc1)C(N)=O` (racemic) [Compound I-116, Racemic N4-[4-(1-Aminocarbonyl)ethoxy]phenyl-N2-(4-aminosulfonyl)phenyl-5-fluoro-2,4-pyrimidinediamine]?
Answer: IC50 [1, 7]: 274 nM; IC50 [2, 8]: 972 nM

Question: With `Cc1ccc(Nc2ncc(C)c(Nc3ccc4c(c3)N(C)C(=O)CS4)n2)cc1S(N)(=O)=O` [VII-33, N2-(3-Aminosulphonyl-4-methylphenyl)-5-methyl-N4-(4-methyl-3-oxo-benzo[1,4]thiazin-6-yl)-2,4-pyrimidinediamine] as the compound, how does the IC50 [1, 3] read?
Answer: 28.9 nM

Question: And the IC50 [2, 4]?
Answer: 18.4 nM

Question: Which IC50 [1, 5] does the source give for `NS(=O)(=O)c1ccc(Nc2ncc(F)c(Nc3ccc(Cn4ccnn4)cc3)n2)cc1` [III-96] here?
Answer: 3330 nM

Question: What about the IC50 [2, 6] of the same compound?
Answer: 2190 nM

Question: How did the IC50 [1, 3] turn out when `COc1ccc(Nc2nc(Nc3ccc(C)c(S(N)(=O)=O)c3)ncc2F)cc1Cl` [VI-4, N2-(3-Aminosulfonyl-4-methylphenyl)-N4-(3-chloro-4-methoxyphenyl)-5-fluoro-2,4-pyrimidinediamine] was run?
Answer: 21.1 nM

Question: What about the IC50 [2, 4] of the same compound?
Answer: 231 nM

Question: `CNS(=O)(=O)c1cc(Nc2ncc(F)c(Nc3ccc(Cn4ccnc4C)cc3)n2)ccc1C` [III-93, 5-Fluoro-N2-[3-(N-methylaminosulfony)-4-methylphenyl]-N4-[4-(2-methyl-1-imidazolylmethyl)phenyl]-2,4-pyrimidinediamine] was tested. Which IC50 [1, 5] did it give?
Answer: 173 nM

Question: And the IC50 [2, 6]?
Answer: 819 nM

Question: How did the IC50 [1, 9] turn out when `NS(=O)(=O)c1cccc(Nc2ncc(F)c(Nc3ccc(Oc4ccncc4)cc3)n2)c1` [II-17, N2-(3-Aminosulfonylphenyl)-5-fluoro-N4-[4-(4-pyridyloxy)phenyl]-2,4-pyrimidinediamine] was run?
Answer: 21200 nM

Question: What about the IC50 [2, 10] of the same compound?
Answer: 8210 nM

Question: `Cc1ccc(Nc2ncc(F)c(Nc3ccc(CNC(=O)C4CC4)cc3)n2)cc1S(N)(=O)=O` [III-43, N2-(3-aminosulfonyl-4-methyl)phenyl-N4-(4-cyclopropylcarbonylaminomethyl)phenyl-5-fluoro-2,4-pyrimidinediamine] was tested. Which IC50 [1, 7] did it give?
Answer: 270 nM

Question: And the IC50 [2, 8]?
Answer: 898 nM

Question: Which IC50 [1, 7] does the source give for `Cc1ccc(Nc2ncc(F)c(Nc3ccc(NC(=O)CC#N)cc3)n2)cc1S(N)(=O)=O` [Compound I-79, N2-(3-Aminosulfonyl-4-methylphenyl)-N4-[4-(N-cyanoacetyl)aminophneyl]-5-fluoro-2,4-pyrimidinediamine] here?
Answer: 461 nM

Question: And the IC50 [2, 8]?
Answer: 1060 nM

Question: With `CC1(C)Oc2cc(Nc3nc(Nc4cccc(S(N)(=O)=O)c4)ncc3F)cnc2NC1=O` [VII-51, N2-(3-Aminosulfonylphenyl)-N4-[2,2-dimethyl-3-oxo-4H-5-pyrid[1,4]oxazin-7-yl]-5-fluoro-2,4-pyrimidinediamine] as the compound, how does the IC50 [1, 5] read?
Answer: 541 nM

Question: And the IC50 [2, 6]?
Answer: 1790 nM

Question: `CNC(=O)COc1ccc(Nc2nc(Nc3ccc(C)c(S(N)(=O)=O)c3)ncc2F)cc1Cl` [Compound I-148, N2-(3-Aminosulfonyl-4-methylphenyl)-N4-(3-chloro-4-methylaminocarbonylmethoxyphenyl)-5-fluoro-2,4-pyrimidinediamine] was tested. Which IC50 [1, 9] did it give?
Answer: 61.2 nM

Question: What about the IC50 [2, 10] of the same compound?
Answer: 240 nM

Question: `CNS(=O)(=O)c1cc(Nc2ncc(F)c(Nc3ccc(-c4ccccn4)c(OCCl)c3)n2)ccc1C` [IX-54, 5-Fluoro-N2-[3-N-(methyl)aminosulfonyl-4-methylphenyl]-N4-[4-(2-pyridinyl)-3-chloromethyleneoxyphenyl]-2,4-pyrimidinediamine] was tested. Which IC50 [1, 5] did it give?
Answer: 174 nM

Question: And the IC50 [2, 6]?
Answer: 2470 nM

Question: What does the source list for `N#CCC(=O)Nc1ccc(Nc2nc(Nc3cccc(S(N)(=O)=O)c3)ncc2F)cc1` [Compound I-78, N2-(3-Aminosulfonylphenyl)-N4-[4-(N-cyanoacetyl)aminophneyl]-5-fluoro-2,4-pyrimidinediamine]?
Answer: IC50 [1, 7]: 635 nM; IC50 [2, 8]: 1210 nM

Question: Which IC50 [1, 9] does the source give for `Cc1ccc(Nc2ncc(F)c(Nc3ccc(Oc4ccncc4)cc3)n2)cc1S(N)(=O)=O` [II-16, N2-(3-Aminosulfonyl-4-methylphenyl)-5-fluoro-N4-[4-(4-pyridyloxy)phenyl]-2,4-pyrimidinediamine] here?
Answer: 18300 nM

Question: What about the IC50 [2, 10] of the same compound?
Answer: 3720 nM

Question: `CN1CCN(C(=O)c2ccc(Nc3nc(Nc4cccc(S(N)(=O)=O)c4)ncc3F)cc2)CC1` [IX-28, N2-(3-Aminosulfonylphenyl)-5-fluoro-N4-[4-(4-methylpiperazin-1-ylcarbonyl)phenyl]-2,4-pyrimidinediamine] was tested. Which IC50 [1, 3] did it give?
Answer: 1660 nM

Question: What about the IC50 [2, 4] of the same compound?
Answer: 10100 nM

Question: What does the source list for `Cc1cc(COc2ccc(Nc3nc(Nc4ccc(S(N)(=O)=O)cc4)ncc3F)cc2C)no1` [Compound I-240, N2-(4-Aminosulfonylphenyl)-5-fluoro-N4-[3methyl-4-(5-methylisoxazol-3-yl)methyleneoxyphenyl]-2,4-pyrimidinediamine]?
Answer: IC50 [1, 7]: 205 nM; IC50 [2, 8]: 5260 nM

Question: How did the IC50 [1, 3] turn out when `Cc1ccc(Nc2ncc(F)c(Nc3ccc(CCCO)cc3)n2)cc1S(N)(=O)=O` [VI-87, N2-(3-Aminosulfonyl-4-methylphenyl)-5-fluoro-N4-[4-(3-hydroxypropyl)phenyl]-2,4-pyrimidinediamine] was run?
Answer: 541 nM

Question: What about the IC50 [2, 4] of the same compound?
Answer: 1240 nM

Question: How did the IC50 [1, 3] turn out when `Cc1ccc(Nc2ncc(F)c(Nc3ccc4ccccc4n3)n2)cc1S(N)(=O)=O` [VII-64, N2-(3-Aminosulfonyl-4-methylphenyl)-5-fluoro-N4-(quinolin-2-yl)-2,4-pyrimidinediamine] was run?
Answer: 363 nM

Question: What about the IC50 [2, 4] of the same compound?
Answer: 3810 nM

Question: How did the IC50 [1, 3] turn out when `Cc1cnc(Nc2ccc(S(N)(=O)=O)cc2)nc1Nc1ccc2c(c1)N(C)C(=O)CS2` [VII-34, N2-(4-Aminosulphonylphenyl)-5-methyl-N4-(4-methyl-3-oxo-benzo[1,4]thiazin-6-yl)-2,4-pyrimidinediamine] was run?
Answer: 45 nM

Question: What about the IC50 [2, 4] of the same compound?
Answer: 22.5 nM

Question: How did the IC50 [1, 9] turn out when `CNC(=O)OCCc1ccc(Nc2nc(Nc3ccc(C)c(S(N)(=O)=O)c3)ncc2F)cc1` [III-59, N2-(3-Aminosulfonyl-4-methylphenyl)-5-fluoro-N4-{4-[2-(methylaminocarbonyloxy)ethyl]phenyl}-2,4-pyrimidinediamine] was run?
Answer: 150 nM

Question: And the IC50 [2, 10]?
Answer: 458 nM

Question: `CNC(=O)OCCc1ccc(Nc2nc(Nc3ccc(Cl)c(S(N)(=O)=O)c3)ncc2F)cc1` [III-61, N2-(3-Aminosulfonyl-4-chlorophenyl)-5-fluoro-N4-{4-[2-(methylaminocarbonyloxy)ethyl]phenyl}-2,4-pyrimidinediamine] was tested. Which IC50 [1, 9] did it give?
Answer: 259 nM

Question: What about the IC50 [2, 10] of the same compound?
Answer: 1080 nM

Question: What does the source list for `Cc1cc(Nc2nc(Nc3ccc(S(N)(=O)=O)cc3)ncc2F)cc(C)c1OCC(N)=O` [Compound I-114, N4-(4-Aminocarbonylmethoxy-3,5-dimethyl)phenyl-N2-(4-aminosulfonyl)phenyl-5-fluoro-2,4-pyrimidinediamine]?
Answer: IC50 [1, 7]: 448 nM; IC50 [2, 8]: 6710 nM

Question: Which results are given for `NS(=O)(=O)c1ccc(Nc2ncc(F)c(Nc3ccc(Oc4cccnc4)cc3)n2)cc1` [II-14, N2-(4-Aminosulfonylphenyl)-5-fluoro-N4-[4-(3-pyridyloxy)phenyl]-2,4-pyrimidinediamine]?
Answer: IC50 [1, 9]: 46.9 nM; IC50 [2, 10]: 579 nM

Question: Which results are given for `CCC(=O)NS(=O)(=O)c1cc(Nc2ncc(F)c(Nc3ccc(CCC#N)c(Cl)c3)n2)ccc1C` [III-29, N4-(3-Chloro-4-cyanoethylene-phenyl)-5-fluoro-N2-(4-methyl-3-propionylaminosulfonylphenyl)-2,4-pyrimidinediamine Sodium salt]?
Answer: IC50 [1, 7]: 3630 nM; IC50 [2, 8]: 12400 nM
